Experimental findings from patent US20110059983A1, “USE OF SUBSTITUTED OXINDOLE DERIVATIVES FOR THE TREATMENT AND PROPHYLAXIS OF PAIN” (Abbott GmbH & Co. KG, priority 2009, published 2011) are described below.

The test system of this test is Chung model (spinal nerve ligation rats). In words: Tactile allodynia test after spinal nerve ligation (SNL, Chung model). The test is classed as in vivo, rat. The note with it: 3, 10 and 30 mg/kg po in saline, administered 1 hour prior to the tactile allodynic test. The text has this:
SNL surgery: For spinal nerve ligation surgery, rats were anesthetized with isoflurane gas. […] The hair at the surgical site was clipped and disinfected with alcohol and betadine. Body temperature was maintained during surgery by using a heating pad. A skin incision (approximately 3 cm) was made on the dorsal midline, using the level of the iliac crests as the midpoint of the incision. At the mid-sacral region, on the left side of the vertebral column (in the sagittal plane), a #15 scalpel blade was used to cut the muscles close to the vertebral body until the blade hits the sacrum bone. A retractor system was used to expose the area from the sacro-iliac rim to about 2 cm of the lateral vertebral column. Using rongeurs, the facet joint was removed followed by the L6 transverse process. A glass hook was used to isolate and tightly ligate L5 and L6 with 6-0 silk suture. The muscle was then sutured using 4-0 silk suture. The skin was closed using wound clips.
Tactile allodynia test: The rats were placed on testing stands with screens under their feet. von Frey filaments eliciting various forces (up to 15 g) were applied to the paws, starting with a filament of 4.31 g and proceeding with alternating lighter and heavier filaments. The measured variable is the 50% withdrawal threshold (PWT) and is calculated from the up-down formula in Chaplan et al. 1994.

Regarding `CCOc1ncccc1C1(NC(=O)N2CCN(C3CCN(C)CC3)CC2)C(=O)N(S(=O)(=O)c2ccc(OC)cc2OC)c2ccc(Cl)cc21` (stereo not shown) [compound 1], the “50% paw withdrawal threshold (PWT)” value is reported as “dose-dependently increased the withdrawal threshold”.
